Assay results from patent US20250215012A1, “IKZF2 DEGRADERS AND USES THEREOF” (REGENTS OF THE UNIVERSITY OF MICHIGAN, priority 2022, published 2025).
Each block holds one molecule with its values, some of them ahead of it.

Target: IKZF2 (Homo sapiens (Human), UniProt Q96SW2+Q9UKS7)
Assay: IKZF2 HiBiT Assay (Jurkat-IKZF2-HiBiT cell line)
Assay type: cell-based
Settings: Jurkat-IKZF2-HiBiT cells, 24 hours; for DC50: read-out: HiBit assay degradation analysis DC50; for Dmax: read-out: HiBit assay degradation analysis Dmax
Outline: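 IKZF2 degradation was assessed as HiBiT luminescence in Jurkat-IKZF2-HiBiT cells, using lytic detection after 24 h of compound treatment at 37 °C, 5% CO2.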

IKZF2, sequence (Q9UKS7 whole entry): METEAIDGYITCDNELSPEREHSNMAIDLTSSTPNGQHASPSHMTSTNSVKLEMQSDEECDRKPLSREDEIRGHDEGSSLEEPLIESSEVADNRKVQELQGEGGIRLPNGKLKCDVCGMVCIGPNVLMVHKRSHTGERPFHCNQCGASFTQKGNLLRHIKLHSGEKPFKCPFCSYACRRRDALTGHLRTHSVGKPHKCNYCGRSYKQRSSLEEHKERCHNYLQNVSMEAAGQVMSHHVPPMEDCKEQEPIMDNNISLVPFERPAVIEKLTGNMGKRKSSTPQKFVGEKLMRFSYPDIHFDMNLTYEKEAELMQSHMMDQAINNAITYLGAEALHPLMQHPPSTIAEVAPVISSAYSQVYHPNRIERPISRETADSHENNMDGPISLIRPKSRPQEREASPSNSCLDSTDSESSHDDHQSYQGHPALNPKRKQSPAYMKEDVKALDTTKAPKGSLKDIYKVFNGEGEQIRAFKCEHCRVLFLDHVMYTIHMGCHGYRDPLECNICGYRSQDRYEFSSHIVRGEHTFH
IKZF2, sequence (Q96SW2 whole entry): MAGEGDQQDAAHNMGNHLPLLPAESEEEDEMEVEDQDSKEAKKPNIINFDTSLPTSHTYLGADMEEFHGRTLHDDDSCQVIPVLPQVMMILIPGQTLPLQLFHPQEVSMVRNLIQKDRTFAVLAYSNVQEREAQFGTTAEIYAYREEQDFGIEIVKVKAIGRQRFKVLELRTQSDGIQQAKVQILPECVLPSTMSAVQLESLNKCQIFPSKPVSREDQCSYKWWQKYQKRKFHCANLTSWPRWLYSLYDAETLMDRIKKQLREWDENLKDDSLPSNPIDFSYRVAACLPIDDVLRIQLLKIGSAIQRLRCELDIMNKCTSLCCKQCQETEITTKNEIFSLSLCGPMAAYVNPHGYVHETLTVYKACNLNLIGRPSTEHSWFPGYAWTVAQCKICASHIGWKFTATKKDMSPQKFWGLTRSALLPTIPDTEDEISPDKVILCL
IKZF2, sequence (Q16531 whole entry partner): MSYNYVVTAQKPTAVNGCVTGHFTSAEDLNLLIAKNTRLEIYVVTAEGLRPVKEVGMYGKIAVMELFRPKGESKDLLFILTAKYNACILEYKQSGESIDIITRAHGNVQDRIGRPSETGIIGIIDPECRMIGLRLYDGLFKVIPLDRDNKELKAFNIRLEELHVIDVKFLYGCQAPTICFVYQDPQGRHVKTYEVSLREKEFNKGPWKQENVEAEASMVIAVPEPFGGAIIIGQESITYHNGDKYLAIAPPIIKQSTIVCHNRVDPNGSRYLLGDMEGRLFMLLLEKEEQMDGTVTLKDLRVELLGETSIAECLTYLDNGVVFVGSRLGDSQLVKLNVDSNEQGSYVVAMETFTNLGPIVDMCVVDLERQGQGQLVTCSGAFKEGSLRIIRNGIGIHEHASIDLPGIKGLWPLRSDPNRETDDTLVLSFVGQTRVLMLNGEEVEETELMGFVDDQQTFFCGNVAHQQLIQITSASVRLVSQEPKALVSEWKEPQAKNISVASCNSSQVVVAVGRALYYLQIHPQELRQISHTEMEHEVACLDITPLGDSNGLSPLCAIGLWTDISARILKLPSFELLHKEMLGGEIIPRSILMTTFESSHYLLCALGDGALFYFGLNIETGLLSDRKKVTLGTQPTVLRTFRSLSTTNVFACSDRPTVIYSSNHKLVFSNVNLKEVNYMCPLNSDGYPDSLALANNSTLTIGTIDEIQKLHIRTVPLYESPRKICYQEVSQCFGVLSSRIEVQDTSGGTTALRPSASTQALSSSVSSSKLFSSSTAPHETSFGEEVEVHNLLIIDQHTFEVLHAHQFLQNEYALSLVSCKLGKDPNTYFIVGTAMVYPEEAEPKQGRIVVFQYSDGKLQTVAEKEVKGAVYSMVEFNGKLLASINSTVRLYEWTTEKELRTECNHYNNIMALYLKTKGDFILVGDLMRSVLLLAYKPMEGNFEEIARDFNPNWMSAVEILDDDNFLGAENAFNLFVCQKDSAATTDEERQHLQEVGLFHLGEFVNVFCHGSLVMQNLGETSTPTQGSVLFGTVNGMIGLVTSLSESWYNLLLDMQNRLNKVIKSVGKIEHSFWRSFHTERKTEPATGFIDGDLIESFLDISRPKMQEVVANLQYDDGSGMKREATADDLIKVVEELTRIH

SMILES: COCCn1ncc2cc(CN3CCC4(CC3)COc3c4ccc4c3CN(C3CCC(=O)NC3=O)C4=O)ccc21 (centres unmarked) [Compound A342, 3-(1′-((1-(2-methoxyethyl)-1H-indazol-5-yl)methyl)-6-oxo-6,8-dihydro-2H,7H-spiro[furo[2,3-e]isoindole-3,4′-piperidin]-7-yl)piperidine-2,6-dione]
- DC50: > 500 nM
- Dmax: < 40%

SMILES: COCCn1ncc2c(CN3CCC4(CC3)COc3c4ccc4c3CN(C3CCC(=O)NC3=O)C4=O)cccc21 (centres unmarked) [Compound A343, 3-(1′-((1-(2-methoxyethyl)-1H-indazol-4-yl)methyl)-6-oxo-6,8-dihydro-2H,7H-spiro[furo[2,3-e]isoindole-3,4′-piperidin]-7-yl)piperidine-2,6-dione]
- DC50: > 500 nM
- Dmax: 40 to 60%

SMILES: O=C1CCC(N2Cc3c(ccc4c3OCC43CCN(Cc4ccc5c(cnn5CCO)c4)CC3)C2=O)C(=O)N1 (centres unmarked) [Compound A344, 3-(1′-((1-(2-hydroxyethyl)-1H-indazol-5-yl)methyl)-6-oxo-6,8-dihydro-2H,7H-spiro[furo[2,3-e]isoindole-3,4′-piperidin]-7-yl)piperidine-2,6-dione]
- DC50: > 500 nM
- Dmax: 40 to 60%

SMILES: O=C1CCC(N2Cc3c(ccc4c3OCC43CCN(Cc4ccc5nn(CCO)cc5c4)CC3)C2=O)C(=O)N1 (centres unmarked) [Compound A345, 3-(1′-((2-(2-hydroxyethyl)-2H-indazol-5-yl)methyl)-6-oxo-6,8-dihydro-2H,7H-spiro [furo[2,3-e]isoindole-3,4′-piperidin]-7-yl)piperidine-2,6-dione]
- DC50: > 500 nM
- Dmax: < 40%

SMILES: CC(C)(c1ccccc1)n1cc(CN2CCC3(CC2)COc2c3ccc3c2CN([C@H]2CCC(=O)NC2=O)C3=O)cn1 [Compound A346, (S)-3-(6-oxo-1′-((1-(2-phenylpropan-2-yl)-1H-pyrazol-4-yl)methyl)-6,8-dihydro-2H,7H-spiro[furo[2,3-e]isoindole-3,4′-piperidin]-7-yl)piperidine-2,6-dione]
- DC50: < 50 nM
- Dmax: 60 to 80%

- DC50: < 50 nM
SMILES: O=C1CC[C@H](N2Cc3c(ccc4c3OCC43CCN(Cc4cnn(CC5C[C@@H]5c5ccccc5)c4)CC3)C2=O)C(=O)N1 (stereo partly drawn) [Compound A347, (S)-3-(6-oxo-1′-((1-(((1S,2S)-2-phenylcyclopropyl)methyl)-1H-pyrazol-4-yl)methyl)-6,8-dihydro-2H,7H-spiro[furo[2,3-e]isoindole-3,4′-piperidin]-7-yl)piperidine-2,6-dione]

SMILES: O=C1CC[C@H](N2Cc3c(ccc4c3OCC43CCN(Cc4cnn(C[C@H]5C[C@@H]5c5ccccc5)c4)CC3)C2=O)C(=O)N1 [Compound A347, (S)-3-(6-oxo-1′-((1-(((1S,2S)-2-phenylcyclopropyl)methyl)-1H-pyrazol-4-yl)methyl)-6,8-dihydro-2H,7H-spiro[furo[2,3-e]isoindole-3,4′-piperidin]-7-yl)piperidine-2,6-dione]
- Dmax: 60 to 80%

SMILES: O=C1CC[C@H](N2Cc3c(ccc4c3OCC43CCN(Cc4cnn(CC5(c6ccccc6)CC5)c4)CC3)C2=O)C(=O)N1 [Compound A348, (S)-3-(6-oxo-1′-((1-((1-phenylcyclopropyl)methyl)-1H-pyrazol-4-yl)methyl)-6,8-dihydro-2H,7H-spiro[furo[2,3-e]isoindole-3,4′-piperidin]-7-yl)piperidine-2,6-dione]
- DC50: < 50 nM
- Dmax: 60 to 80%

SMILES: O=C1CC[C@H](N2Cc3c(ccc4c3OCC43CCN(Cc4cnn(S(=O)(=O)c5ccccc5Cl)c4)CC3)C2=O)C(=O)N1 [Compound A349, (S)-3-(1′-((1-((2-chlorophenyl)sulfonyl)-1H-pyrazol-4-yl)methyl)-6-oxo-6,8-dihydro-2H,7H-spiro[furo[2,3-e]isoindole-3,4′-piperidin]-7-yl)piperidine-2,6-dione]
- DC50: < 50 nM
- Dmax: 60 to 80%

- DC50: < 50 nM
SMILES: O=C1CCC(N2Cc3c(ccc4c3OCC43CCN(Cc4cnn(S(=O)(=O)c5cccc(Cl)c5)c4)CC3)C2=O)C(=O)N1 [Compound A350, (S)-3-(1′-((1-((3-chlorophenyl)sulfonyl)-1H-pyrazol-4-yl)methyl)-6-oxo-6,8-dihydro-2H,7H-spiro[furo[2,3-e]isoindole-3,4′-piperidin]-7-yl)piperidine-2,6-dione]

SMILES: O=C1CC[C@H](N2Cc3c(ccc4c3OCC43CCN(Cc4cnn(S(=O)(=O)c5cccc(Cl)c5)c4)CC3)C2=O)C(=O)N1 [Compound A350, (S)-3-(1′-((1-((3-chlorophenyl)sulfonyl)-1H-pyrazol-4-yl)methyl)-6-oxo-6,8-dihydro-2H,7H-spiro[furo[2,3-e]isoindole-3,4′-piperidin]-7-yl)piperidine-2,6-dione]
- Dmax: 60 to 80%

SMILES: O=C1CCC(N2Cc3c(ccc4c3OCC43CCN(C[C@H]4C[C@H](Oc5ccc(F)cc5)C4)CC3)C2=O)C(=O)N1 (some centres unmarked) [Compound A351, 3-(1′-(((1r,3r)-3-(4-fluorophenoxy)cyclobutyl)methyl)-6-oxo-6,8-dihydro-2H,7H-spiro[furo[2,3-e]isoindole-3,4′-piperidin]-7-yl)piperidine-2,6-dione]
- DC50: > 500 nM
- Dmax: 40 to 60%

- DC50: 200 to 500 nM
SMILES: O=C1CCC(N2Cc3c(ccc4c3OCC43CCN(Cc4cnn(S(=O)(=O)c5ccc(Cl)cc5)c4)CC3)C2=O)C(=O)N1 [Compound A352, (S)-3-(1′-((1-((4-chlorophenyl)sulfonyl)-1H-pyrazol-4-yl)methyl)-6-oxo-6,8-dihydro-2H,7H-spiro[furo[2,3-e]isoindole-3,4′-piperidin]-7-yl)piperidine-2,6-dione]

SMILES: O=C1CC[C@H](N2Cc3c(ccc4c3OCC43CCN(Cc4cnn(S(=O)(=O)c5ccc(Cl)cc5)c4)CC3)C2=O)C(=O)N1 [Compound A352, (S)-3-(1′-((1-((4-chlorophenyl)sulfonyl)-1H-pyrazol-4-yl)methyl)-6-oxo-6,8-dihydro-2H,7H-spiro[furo[2,3-e]isoindole-3,4′-piperidin]-7-yl)piperidine-2,6-dione]
- Dmax: < 40%

- DC50: > 500 nM
SMILES: O=C1CCC(N2Cc3c(ccc4c3OCC43CCN(Cc4cnn(S(=O)(=O)c5ccc(F)c(F)c5)c4)CC3)C2=O)C(=O)N1 [Compound A353, (S)-3-(1′-((1-((3,4-difluorophenyl)sulfonyl)-1H-pyrazol-4-yl)methyl)-6-oxo-6,8-dihydro-2H,7H-spiro[furo[2,3-e]isoindole-3,4′-piperidin]-7-yl)piperidine-2,6-dione]

SMILES: O=C1CC[C@H](N2Cc3c(ccc4c3OCC43CCN(Cc4cnn(S(=O)(=O)c5ccc(F)c(F)c5)c4)CC3)C2=O)C(=O)N1 [Compound A353, (S)-3-(1′-((1-((3,4-difluorophenyl)sulfonyl)-1H-pyrazol-4-yl)methyl)-6-oxo-6,8-dihydro-2H,7H-spiro[furo[2,3-e]isoindole-3,4′-piperidin]-7-yl)piperidine-2,6-dione]
- Dmax: 40 to 60%

- DC50: > 500 nM
SMILES: O=C1CCC(N2Cc3c(ccc4c3OCC43CCN(Cc4cnn(S(=O)(=O)c5ccc(F)cc5)c4)CC3)C2=O)C(=O)N1 [Compound A354, (S)-3-(1′-((1-((4-fluorophenyl)sulfonyl)-1H-pyrazol-4-yl)methyl)-6-oxo-6,8-dihydro-2H,7H-spiro[furo[2,3-e]isoindole-3,4′-piperidin]-7-yl)piperidine-2,6-dione]

SMILES: O=C1CC[C@H](N2Cc3c(ccc4c3OCC43CCN(Cc4cnn(S(=O)(=O)c5ccc(F)cc5)c4)CC3)C2=O)C(=O)N1 [Compound A354, (S)-3-(1′-((1-((4-fluorophenyl)sulfonyl)-1H-pyrazol-4-yl)methyl)-6-oxo-6,8-dihydro-2H,7H-spiro[furo[2,3-e]isoindole-3,4′-piperidin]-7-yl)piperidine-2,6-dione]
- Dmax: 40 to 60%

SMILES: O=C1CC[C@H](N2Cc3c(ccc4c3OCC43CCN(Cc4cnn(S(=O)(=O)c5ccccc5F)c4)CC3)C2=O)C(=O)N1 [Compound A355, (S)-3-(1′-((1-((2-fluorophenyl)sulfonyl)-1H-pyrazol-4-yl)methyl)-6-oxo-6,8-dihydro-2H,7H-spiro[furo[2,3-e]isoindole-3,4′-piperidin]-7-yl)piperidine-2,6-dione]
- HiBit assay degradation analysis Dmax: C (“C” >=40% and <60%)
- DC50: 200 to 500 nM

SMILES: O=C1CCC(N2Cc3c(ccc4c3OCC43CCN(C[C@H]4C[C@H](Oc5ccc(F)cc5)C4)CC3)C2=O)C(=O)N1 (some centres unmarked) [Compound A356, 3-(1′-(((1r,3r)-3-(4-fluorophenoxy)cyclobutyl)methyl)-6-oxo-6,8-dihydro-2H,7H-spiro[furo[2,3-e]isoindole-3,4′-piperidin]-7-yl)piperidine-2,6-dione]
- DC50: > 500 nM

- DC50: < 50 nM
SMILES: O=C1CCC(N2Cc3c(ccc4c3OCC43CCN(Cc4cnn(S(=O)(=O)c5cccc(Cl)c5F)c4)CC3)C2=O)C(=O)N1 [Compound A357, (S)-3-(1′-((1-((3-chloro-2-fluorophenyl)sulfonyl)-1H-pyrazol-4-yl)methyl)-6-oxo-6,8-dihydro-2H,7H-spiro[furo[2,3-e]isoindole-3,4′-piperidin]-7-yl)piperidine-2,6-dione]

SMILES: O=C1CC[C@H](N2Cc3c(ccc4c3OCC43CCN(Cc4cnn(S(=O)(=O)c5cccc(Cl)c5F)c4)CC3)C2=O)C(=O)N1 [Compound A357, (S)-3-(1′-((1-((3-chloro-2-fluorophenyl)sulfonyl)-1H-pyrazol-4-yl)methyl)-6-oxo-6,8-dihydro-2H,7H-spiro[furo[2,3-e]isoindole-3,4′-piperidin]-7-yl)piperidine-2,6-dione]
- Dmax: 60 to 80%

SMILES: O=C1CC[C@H](N2Cc3c(ccc4c3OCC43CCN(C[C@H]4C[C@@H](Oc5ccc(F)cc5)C4)CC3)C2=O)C(=O)N1 [Compound A358, (S)-3-(1′-(((1s,3R)-3-(4-fluorophenoxy)cyclobutyl)methyl)-6-oxo-6,8-dihydro-2H,7H-spiro[furo[2,3-e]isoindole-3,4′-piperidin]-7-yl)piperidine-2,6-dione]
- DC50: > 500 nM
- Dmax: 40 to 60%

SMILES: N#Cc1ccc(-n2cc(CN3CCC4(CC3)COc3c4ccc4c3CN([C@H]3CCC(=O)NC3=O)C4=O)cn2)cc1 [Compound A359, (S)-4-(4-((7-(2,6-dioxopiperidin-3-yl)-6-oxo-7,8-dihydro-2H,6H-spiro[furo[2,3-e]isoindole-3,4′-piperidin]-1′-yl)methyl)-1H-pyrazol-1-yl)benzonitrile]
- DC50: < 50 nM
- Dmax: 60 to 80%
